Assays:
[1] = system: minipig hepatocytes; assay: In vitro metabolic stability in hepatocytes (minipig); assay type: in vitro ADME; settings: ^14C-spiro-oxindole compound
From the text: A total of 8 metabolites were identified in samples (in vitro and in vivo) from rats, dogs, and humans. All metabolites found in humans were also found in the Good Laboratory Practice (GLP) toxicology species, the rat. Following oral administration of spiro-oxindole compound to humans, spiro-oxindole compound and 3 of its metabolites (M1, M5, and M6) were measurable. A similar metabolic profile was observed following topical administration to humans, albeit at much lower plasma concentrations, except metabolite M1 was not detected following human topical administration.

[2] = target: CYP450 2C19 (CYP2C19) (Homo sapiens, UniProt P33261); assay: Reaction phenotyping with recombinant human CYP450 enzymes: CYP2C19; assay type: in vitro ADME
CYP450 2C19 (CYP2C19), sequence (P33261 whole entry): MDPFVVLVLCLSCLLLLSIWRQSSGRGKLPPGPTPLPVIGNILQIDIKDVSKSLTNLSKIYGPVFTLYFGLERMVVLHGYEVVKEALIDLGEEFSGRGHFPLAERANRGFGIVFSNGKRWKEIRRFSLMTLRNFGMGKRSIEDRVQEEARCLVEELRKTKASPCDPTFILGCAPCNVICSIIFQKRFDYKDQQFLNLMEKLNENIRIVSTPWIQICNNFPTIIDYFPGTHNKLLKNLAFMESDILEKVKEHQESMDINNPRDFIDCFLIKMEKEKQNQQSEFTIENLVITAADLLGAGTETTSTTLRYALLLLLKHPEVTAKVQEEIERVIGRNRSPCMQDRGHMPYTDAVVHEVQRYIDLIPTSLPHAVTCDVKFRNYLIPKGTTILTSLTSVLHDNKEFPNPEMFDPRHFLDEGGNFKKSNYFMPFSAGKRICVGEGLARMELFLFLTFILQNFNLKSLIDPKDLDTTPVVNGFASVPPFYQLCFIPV

[3] = system: cultured human lymphocytes; assay: In vitro chromosome aberration assay in cultured human lymphocytes (GLP); assay type: cell-based
From the text: The spiro-oxindole compound was not genotoxic in the standard battery of genotoxicity tests (GLP), including a bacterial reverse mutation assay, an in vitro chromosome aberration assay in cultured human lymphocytes, and an in vivo rat bone marrow micronucleus test.

With `O=C1N(Cc2ccc(C(F)(F)F)o2)c2ccccc2[C@]12COc1cc3c(cc12)OCO3` [spiro-oxindole compound, (S)-1′-{[5-(trifluoromethyl)furan-2-yl]methyl}spiro[furo[2,3-f][1,3]benzodioxole-7,3′-indol]-2′(1′H)-one] the “in vitro metabolic stability in hepatocytes” value [1] was 18%, the “contribution to spiro-oxindole compound metabolism” value [2] was “major contributors” and the genotoxicity [3] was “not genotoxic”.
